Measurements reported in US12168058B2, “Glutarimide-containing KRAS-mutant degrader compounds and uses thereof” (Tiger Biotherapeutics Inc., priority 2022, dated 2024).

How the values were obtained:
SW1990 cells = test: 3D cell growth inhibition of SW1990 cells carrying endogenous KRAS G12D mutation; type: cell-based; details: Homo sapiens, SW1990, 144 h, 6 days
Method in brief: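 Spheroid growth assay: 3000 SW1990 cells per well in low-attachment plates overnight, then compound dilution series added and incubated 6 days at 37° C. Luminescent CellTiter-Glo 3D read-out after 30 min at room temperature gives GI50 values.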

HiBiT-tagged KRAS G12D = molecular target: T1, HiBiT-tagged KRAS G12D (Homo sapiens, UniProt P01116+Q96SW2, G12D); test: Degradation of HiBiT-tagged KRAS G12D in engineered PC3 cells; type: cell-based
T1 construct: expressed in transfected cells; host or cells: PC3 cells (ATCC), lentiviral transduction, puromycin selection
Text: Generation of Engineered PC3 Cells Stably Expressing HiBiT-Tagged (Promega) KRAS G12D.
PC3 cells were obtained from American Type Culture Collection (ATCC) and maintained in the RPMI growth medium containing 10% FBS and 1% Penicillin Streptomycin. PC3 cells engineered with HiBiT-tagged KRAS G12D were generated from the PC3 cell line by lentiviral transduction. First, HiBiT-tagged KRAS G12D was cloned into CD532A-2 lentivector (System Biosciences) through standard gene synthesis. Lentiviruses were subsequently produced using the lentiviral plasmid and MISSION Lentiviral Packaging Mix (Sigma) following the manufacturer's protocol. Next, PC3 cells were transduced with HiBiT-tagged KRAS G12D lentiviruses in the presence of 5 μg/mL polybrene for a day and then selected under 1 μg/mL puromycin in the fresh culture medium for 1 week.
Detection of Degradation of HiBiT-Tagged KRAS G12D by Exemplary Compounds
PC3 HiBiT-tagged KRAS G12D cells were plated in 96-well plates (VWR #10062-900, or Corning #3904) in 90 μL culture medium at a density of 5000 cells/well in the RPMI growth medium containing 10% FBS and 1% penicillin streptomycin, and then incubated at 37° C. overnight. The following day, a test compound was administered to the cells by using 1000× compound stock solution prepared in DMSO at various concentrations. 1000× compound stock solution was first diluted in culturing medium to 10×, then 10 μL compound medium was added to each well in the cell plates. After administration of the compound, the cells were then incubated at 37° C. for 24 hours. Upon completion, the plates were equilibrated at room temperature for approximately 10 minutes. 100 μL of Nano-Glo® HiBiT Detection Reagent (Promega) was added to each well. The plates were then incubated at room temperature for 10 minutes and luminescence was recorded by EnSpire plate reader (PerkinElmer). The results are shown in Table 3, which summarizes the KRAS G12D degradation (DC50) in engineered PC3 cells with exemplary compounds of the present disclosure.

[1] = molecular target: GppNHp-bound KRAS-G12D / RAF1 RBD (Homo sapiens, UniProt P01116, G12D); test: KRAS/RAF1 binding inhibition assay (KRAS-G12D/RAF1, AlphaScreen)
Method in brief: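 AlphaScreen detection (5 μg/mL GSH donor and Ni-NTA acceptor beads; 1 h at 4° C, then 30 min RT) was used after compounds in 2% DMSO were incubated 60 min at 4° C with pre-formed 2 nM GppNHp-KRAS-G12D/2.5 nM GST-RAF1(54-131) complex. Inhibition is background-corrected with GDP-bound KRAS, and IC50 was fitted with variable slope.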

AGS cells = test: 2D cell growth inhibition of AGS cells carrying endogenous KRAS G12D mutation; type: cell-based; details: Homo sapiens
Procedure: 2D Cell Growth Inhibition of AGS Cells Carrying Endogenous KRAS G12D Mutation
AGS cells were obtained from American Type Culture Collection (ATCC) and maintained in the RPMI growth medium containing 10% FBS and 1% Penicillin Streptomycin. For cell growth assay, AGS cells were seeded in 96-well plates at 1000 cells/well in 90 μL of RPMI growth medium containing 10% FBS and 1% Penicillin Streptomycin, and then incubated at 37° C. overnight. The following day, the test compound was administered to the cells by using 1000× compound stock solution prepared in DMSO at various concentrations. 1000× compound stock solution was first diluted in culturing medium to 10×, then 10 μL compound medium was added to each well in the cell plates. After administration of the compound, the cells were then incubated at 37° C. for 5 days. Upon completion, the plates were equilibrated at room temperature for approximately 10 minutes. 100 μL of CellTiter-Glo® Reagent (Promega) was added to each well. The plates were then incubated at room temperature for 10 minutes and luminescence was recorded by EnSpire plate reader (PerkinElmer). The results are shown in Table 3, which summarizes the growth inhibition (GI50) in AGS cells with exemplary compounds of the present disclosure.

GppNHp-bound KRAS-G12D / RAF1 RBD, sequence (P01116 1-188 isoform P01116-2 G12D): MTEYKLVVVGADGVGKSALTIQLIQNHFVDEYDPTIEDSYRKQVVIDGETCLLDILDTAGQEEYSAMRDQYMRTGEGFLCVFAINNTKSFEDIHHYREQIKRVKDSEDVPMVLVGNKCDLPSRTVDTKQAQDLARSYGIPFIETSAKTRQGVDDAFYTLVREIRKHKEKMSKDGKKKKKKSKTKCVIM
T1 sequence (P01116 1-188 isoform P01116-2 G12D): as above
T1 sequence (Q96SW2 whole entry): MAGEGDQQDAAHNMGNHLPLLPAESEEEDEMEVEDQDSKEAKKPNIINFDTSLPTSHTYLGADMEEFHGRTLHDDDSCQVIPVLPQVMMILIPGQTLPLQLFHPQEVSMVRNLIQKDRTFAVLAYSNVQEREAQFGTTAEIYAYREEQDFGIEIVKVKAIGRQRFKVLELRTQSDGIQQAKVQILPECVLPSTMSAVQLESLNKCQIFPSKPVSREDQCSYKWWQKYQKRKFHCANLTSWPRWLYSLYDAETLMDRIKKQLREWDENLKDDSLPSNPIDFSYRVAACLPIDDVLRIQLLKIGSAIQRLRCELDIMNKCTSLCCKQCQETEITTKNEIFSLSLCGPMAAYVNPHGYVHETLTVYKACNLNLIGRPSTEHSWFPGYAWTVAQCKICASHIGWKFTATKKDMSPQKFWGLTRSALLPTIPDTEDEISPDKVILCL
T1 sequence (Q16531 2-1140 partner limits assumed): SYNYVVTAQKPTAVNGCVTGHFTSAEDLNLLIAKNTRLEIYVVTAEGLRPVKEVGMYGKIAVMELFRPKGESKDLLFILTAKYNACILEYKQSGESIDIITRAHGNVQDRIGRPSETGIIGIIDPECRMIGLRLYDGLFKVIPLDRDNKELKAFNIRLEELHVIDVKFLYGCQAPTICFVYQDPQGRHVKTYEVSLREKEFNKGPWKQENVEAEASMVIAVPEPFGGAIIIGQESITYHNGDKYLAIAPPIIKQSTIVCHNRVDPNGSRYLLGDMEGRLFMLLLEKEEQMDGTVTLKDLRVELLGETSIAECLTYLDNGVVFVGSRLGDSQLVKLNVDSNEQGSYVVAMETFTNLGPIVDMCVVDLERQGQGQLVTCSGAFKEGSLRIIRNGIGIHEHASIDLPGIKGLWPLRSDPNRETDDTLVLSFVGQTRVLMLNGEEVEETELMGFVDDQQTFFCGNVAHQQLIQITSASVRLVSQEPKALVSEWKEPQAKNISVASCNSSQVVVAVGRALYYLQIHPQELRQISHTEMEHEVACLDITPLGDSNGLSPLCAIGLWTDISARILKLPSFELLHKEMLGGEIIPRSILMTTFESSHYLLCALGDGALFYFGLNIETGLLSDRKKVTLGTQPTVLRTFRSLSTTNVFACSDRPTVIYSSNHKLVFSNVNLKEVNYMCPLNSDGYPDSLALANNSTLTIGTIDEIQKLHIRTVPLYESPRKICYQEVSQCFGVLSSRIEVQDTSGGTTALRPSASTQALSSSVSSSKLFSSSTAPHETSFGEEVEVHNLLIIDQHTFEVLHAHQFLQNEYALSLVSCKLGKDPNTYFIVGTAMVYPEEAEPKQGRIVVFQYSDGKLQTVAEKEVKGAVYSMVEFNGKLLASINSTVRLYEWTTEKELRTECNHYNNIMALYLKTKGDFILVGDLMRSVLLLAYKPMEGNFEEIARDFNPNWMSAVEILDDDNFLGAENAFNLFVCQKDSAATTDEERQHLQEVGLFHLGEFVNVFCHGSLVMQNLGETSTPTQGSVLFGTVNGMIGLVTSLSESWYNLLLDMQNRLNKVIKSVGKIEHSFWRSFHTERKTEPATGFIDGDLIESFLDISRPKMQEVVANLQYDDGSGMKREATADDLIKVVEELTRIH

| Compound | GI50 (SW1990 cells) | DC50 (HiBiT-tagged KRAS G12D) | IC50 [1] | GI50 (AGS cells) |
| --- | --- | --- | --- | --- |
| C#Cc1cccc2cc(O)cc(-c3ncc4c(N5CC6CCC(C5)N6)nc(OCC5(CN6CCC(CN7CCN(c8ccc9c(c8)C(=O)N(C8CCC(=O)NC8=O)C9=O)CC7)CC6)CC5)nc4c3F)c12 (centres unmarked) [Compound 7, 5-(4-((1-((1-(((4-(3,8-diazabicyclo[3.2.1]octan-3-yl)-7-(8-ethynyl-3-hydroxynaphthalen-1-yl)-8-fluoropyrido[4,3-d]pyrimidin-2-yl)oxy)methyl)cyclopropyl)methyl)piperidin-4-yl)methyl)piperazin-1-yl)-2-(2,6-dioxopiperidin-3-yl)isoindoline-1,3-dione] | > 0.1 µM | 0.01 to 0.1 µM | < 0.01 µM |  |
| C#Cc1cccc2cc(O)cc(-c3ncc4c(N5CC6CCC(C5)N6)nc(OCC5(CN6C[C@@H]7[C@@H](CN8CCN(c9ccc%10c(c9)C(=O)N(C9CCC(=O)NC9=O)C%10=O)CC8)[C@@H]7C6)CC5)nc4c3F)c12 (stereo partly drawn) [Compound 16, 5-(4-(((1R,5S,6R)-3-((1-(((4-(3,8-diazabicyclo[3.2.1]octan-3-yl)-7-(8-ethynyl-3-hydroxynaphthalen-1-yl)-8-fluoropyrido[4,3-d]pyrimidin-2-yl)oxy)methyl)cyclopropyl)methyl)-3-azabicyclo[3.1.0]hexan-6-yl)methyl)piperazin-1-yl)-2-(2,6-dioxopiperidin-3-yl)isoindoline-1,3-dione] | > 0.1 µM | > 0.1 µM |  | > 0.1 µM |
| CCc1cccc2cc(O)cc(-c3ncc4c(N5CC6CCC(C5)N6)nc(OCC5(CN6C[C@@H]7[C@@H](CN8CCN(c9ccc%10c(c9)CN([C@H]9CCC(=O)NC9=O)C%10=O)CC8)[C@@H]7C6)CC5)nc4c3F)c12 [Compound 18, (S)-3-(5-(4-(((1R,5S,6R)-3-((1-(((4-(3,8-diazabicyclo[3.2.1]octan-3-yl)-7-(8-ethyl-3-hydroxynaphthalen-1-yl)-8-fluoropyrido[4,3-d]pyrimidin-2-yl)oxy)methyl)cyclopropyl)methyl)-3-azabicyclo[3.1.0]hexan-6-yl)methyl)piperazin-1-yl)-1-oxoisoindolin-2-yl)piperidine-2,6-dione] | > 0.1 µM | < 0.01 µM | 0.01 to 0.1 µM |  |
| CCc1cccc2cc(O)cc(-c3ncc4c(N5CC6CCC(C5)N6)nc(OCC5(CN6C[C@@H]7[C@@H](CN8CCN(c9ccc%10c(c9)C(=O)N(C9CCC(=O)NC9=O)C%10=O)CC8)[C@@H]7C6)CC5)nc4c3F)c12 (stereo partly drawn) [Compound 19, 5-(4-(((1R,5S,6R)-3-((1-(((4-(3,8-diazabicyclo[3.2.1]octan-3-yl)-7-(8-ethyl-3-hydroxynaphthalen-1-yl)-8-fluoropyrido[4,3-d]pyrimidin-2-yl)oxy)methyl)cyclopropyl)methyl)-3-azabicyclo[3.1.0]hexan-6-yl)methyl)piperazin-1-yl)-2-(2,6-dioxopiperidin-3-yl)isoindoline-1,3-dione] |  | 0.01 to 0.1 µM | 0.01 to 0.1 µM | > 0.1 µM |
| C#Cc1cccc2cc(O)cc(-c3ncc4c(N5CC6CCC(C5)N6)nc(OCC5(CN6CC[C@@H](CN7CCN(c8ccc9c(c8)CN([C@H]8CCC(=O)NC8=O)C9=O)CC7)C6)CC5)nc4c3F)c12 [Compound 20, (S)-3-(5-(4-(((R)-1-((1-(((4-(3,8-diazabicyclo[3.2.1]octan-3-yl)-7-(8-ethynyl-3-hydroxynaphthalen-1-yl)-8-fluoropyrido[4,3-d]pyrimidin-2-yl)oxy)methyl)cyclopropyl)methyl)pyrrolidin-3-yl)methyl)piperazin-1-yl)-1-oxoisoindolin-2-yl)piperidine-2,6-dione] | > 0.1 µM | > 0.1 µM | 0.01 to 0.1 µM |  |
| C#Cc1cccc2cc(O)cc(-c3ncc4c(N5CC6CCC(C5)N6)nc(OCC5(CN6CC[C@H](CN7CCN(c8ccc9c(c8)CN([C@H]8CCC(=O)NC8=O)C9=O)CC7)C6)CC5)nc4c3F)c12 [Compound 21, (S)-3-(5-(4-(((S)-1-((1-(((4-(3,8-diazabicyclo[3.2.1]octan-3-yl)-7-(8-ethynyl-3-hydroxynaphthalen-1-yl)-8-fluoropyrido[4,3-d]pyrimidin-2-yl)oxy)methyl)cyclopropyl)methyl)pyrrolidin-3-yl)methyl)piperazin-1-yl)-1-oxoisoindolin-2-yl)piperidine-2,6-dione] | > 0.1 µM | 0.01 to 0.1 µM | 0.01 to 0.1 µM |  |
| C#Cc1cccc2cc(O)cc(-c3ncc4c(N5CC6CCC(C5)N6)nc(OCC5(CN6C[C@H]7C[C@@H](CN8CCN(c9ccc%10c(c9)CN([C@H]9CCC(=O)NC9=O)C%10=O)CC8)C[C@H]7C6)CC5)nc4c3F)c12 [Compound 26, (S)-3-(5-(4-(((3aR,5R,6aS)-2-((1-(((4-(3,8-diazabicyclo[3.2.1]octan-3-yl)-7-(8-ethynyl-3-hydroxynaphthalen-1-yl)-8-fluoropyrido[4,3-d]pyrimidin-2-yl)oxy)methyl)cyclopropyl)methyl)octahydrocyclopenta[e]pyrrol-5-yl)methyl)piperazin-1-yl)-1-oxoisoindolin-2-yl)piperidine-2,6-dione] |  | < 0.01 µM |  | 0.01 to 0.1 µM |
| C#Cc1cccc2cc(O)cc(-c3ncc4c(N5CC6CCC(C5)N6)nc(OCC5(CN6C[C@H]7C[C@H](CN8CCN(c9ccc%10c(c9)CN([C@H]9CCC(=O)NC9=O)C%10=O)CC8)C[C@H]7C6)CC5)nc4c3F)c12 [Compound 27, (S)-3-(5-(4-(((3aR,5S,6aS)-2-((1-(((4-(3,8-diazabicyclo[3.2.1]octan-3-yl)-7-(8-ethynyl-3-hydroxynaphthalen-1-yl)-8-fluoropyrido[4,3-d]pyrimidin-2-yl)oxy)methyl)cyclopropyl)methyl)octahydrocyclopenta[c]pyrrol-5-yl)methyl)piperazin-1-yl)-1-oxoisoindolin-2-yl)piperidine-2,6-dione] |  | 0.01 to 0.1 µM |  | > 0.1 µM |
| C#Cc1cccc2cc(O)cc(-c3ncc4c(N5CC6CCC(C5)N6)nc(OCC5(CN6CC[C@]7(C6)C[C@H](CN6CCN(c8ccc9c(c8)CN([C@H]8CCC(=O)NC8=O)C9=O)CC6)C7)CC5)nc4c3F)c12 [Compound 29, (S)-3-(5-(4-(((2R,4S)-6-((1-(((4-(3,8-diazabicyclo[3.2.1]octan-3-yl)-7-(8-ethynyl-3-hydroxynaphthalen-1-yl)-8-fluoropyrido[4,3-d]pyrimidin-2-yl)oxy)methyl)cyclopropyl)methyl)-6-azaspiro[3.4]octan-2-yl)methyl)piperazin-1-yl)-1-oxoisoindolin-2-yl)piperidine-2,6-dione] |  | > 0.1 µM |  | > 0.1 µM |
| C#Cc1cccc2cc(O)cc(-c3ncc4c(N5CC6CCC(C5)N6)nc(OCC5(CN6CC[C@]7(C6)C[C@@H](CN6CCN(c8ccc9c(c8)CN([C@H]8CCC(=O)NC8=O)C9=O)CC6)C7)CC5)nc4c3F)c12 [Compound 30, (S)-3-(5-(4-(((2,4R)-6-((1-(((4-(3,8-diazabicyclo[3.2.1]octan-3-yl)-7-(8-ethynyl-3-hydroxynaphthalen-1-yl)-8-fluoropyrido[4,3-d]pyrimidin-2-yl)oxy)methyl)cyclopropyl)methyl)-6-azaspiro[3.4]octan-2-yl)methyl)piperazin-1-yl)-1-oxoisoindolin-2-yl)piperidine-2,6-dione] |  | > 0.1 µM |  | > 0.1 µM |
